Test results: PMC4990076 (MedChemComm, 2016)

Assays:
human Icmt (hIcmt) = human Icmt (hIcmt) (Homo sapiens, UniProt O60725); experiment: in vitro vapor diffusion assay for hIcmt activity; format: biochemical
Ras localization = conditions: at micromolar concentrations; cited from earlier work

Chain of human Icmt (hIcmt) (O60725 whole entry, the tested form may be a part): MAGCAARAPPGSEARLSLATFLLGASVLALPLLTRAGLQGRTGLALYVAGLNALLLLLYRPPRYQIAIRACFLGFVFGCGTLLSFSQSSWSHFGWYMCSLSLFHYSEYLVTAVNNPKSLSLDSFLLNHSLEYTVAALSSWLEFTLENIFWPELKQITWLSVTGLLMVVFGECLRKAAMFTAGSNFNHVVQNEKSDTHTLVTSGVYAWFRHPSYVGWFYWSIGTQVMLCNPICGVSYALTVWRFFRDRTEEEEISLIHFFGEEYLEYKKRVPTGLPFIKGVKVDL

Row | SMILES | hIcmt inhibitory activity (in words) (human Icmt (hIcmt)) | Ras mislocalization in cells (Ras localization)
1 | c1ccc(C(=C2CCOCC2)c2ccc3ccccc3c2)cc1 [Compound 6] | inactive | –
2 | c1ccc2cc(CC3CCOCC3)ccc2c1 [Compound 7] | abolished activity | –
3 | O=C(c1ccc2ccccc2c1)C1CCOCC1 [Compound 8] | abolished activity | –
4 | OC(c1ccccc1)(c1cccs1)C1CCOCC1 (centres unmarked) [Compound 9] | inactive | –
5 | c1ccc(C(=C2CCOCC2)c2cccs2)cc1 [Compound 10] | inactive | –
6 | c1csc(C(c2ccc3ccccc3c2)C2CCNCC2)c1 (centres unmarked) [Compound 11] | not active | –
7 | CN1CCC(C(c2ccc3ccccc3c2)c2cccs2)CC1 (centres unmarked) [Compound 12] | not active | –
8 | CCCCCCCCn1cc(CC(N)=O)c2cc(-c3cccc(C)c3)ccc21 [Cysmethynil] | – | causes Ras mislocalization
